According to patent US20080021056A1, “Fused, Tricyclic Sulfonamide Inhibitors of Gamma Secretase” (priority 2006, published 2008):

Target: T1, gamma-secretase (Homo sapiens, UniProt P49768)
T1 construct: partially purified extract of IMR-32 cell membranes as the gamma-secretase enzyme preparation; endogenous in cells; host or cells: IMR-32 cell membranes (partially purified extract)
Experiment: Gamma-secretase APP enzyme assay
Format: biochemical
Settings: cleavage of MBP-C125 Swe substrate at the Aβ40 site, partially purified extract of IMR-32 cell membranes, ELISA
From the text: The gamma-secretase APP enzyme assay was designed to measure the specific proteolytic cleavage of an APP substrate (MBP-C125 Swe fusion protein) at the Aβ40 site. The assay used a partially purified extract of IMR-32 cell membranes as the gamma-secretase enzyme preparation and a recombinant fusion protein containing the C-terminal 125 amino acids of the Swedish variant of the APP (MBP-C125swe) as the substrate. This assay involved two steps beginning with the enzymatic reaction generating a cleavage product that was captured with an immobilized antibody specific for the neo-epitope Aβ40 site. The captured cleavage product was then detected in a sandwich ELISA assay with a biotinylated reporter antibody that is specific to Aβ (17-28). Streptavidin-linked alkaline phosphatase was then added that would generate a fluorescent signal proportional to the amount of cleavage product. This assay was used to discover small molecule inhibitors of gamma-secretase.
Briefly, a 149 mg/ml solution of BIGCHAP detergent was made with water at 42° C. and then rotated for 30 minutes at the same temperatures This warmed solution of BigCHAPS (N,N-Bis(3-D-gluconamidopropyl)cholamide) detergent was used to dissolve Brain Extract Type-V (lipid containing a minimum of 40% phosphatidylethanolamine) from Signa (St. Louis, Mo.) to a concentration of 8 mg/ml. This solution containing BigCHAPS and lipid at 8 mg/ml is then diluted to 0.53 mg/ml lipid with a pre-warmed solution of Hepes and sodium chloride. This final solution containing Hepes buffer, sodium chloride, BigCHAPS detergent and lipid is used to create working solutions of both gamma-secretase (25 Units) and the MBP-C125 substrate (0.05 mg/ml).
Gamma-secretase was then added to a 96-well micro-titre plate and then incubated with various concentrations of inhibitor for 30 minutes at 37° C. MBPC125 substrate was then added to initiate the reaction that would run for two hours at 37° C. The reaction was quenched with the addition of SDS to a final concentration of 0.1% and then 100 μl of the reaction mixture was transferred to a capture ELISA plate and incubated overnight at 4° C. Detection of the cleavage product was performed using a standard sandwich ELISA assay and quantified using a six point standard curve.

SMILES | IC50 [nM] | IC50 (enantiomer A) [nM] | IC50 (enantiomer B) [nM]
O=S(=O)(c1ccc(C(F)(F)F)cc1)N1c2cc(F)c(F)cc2-c2[nH]ncc2C1C1CC1 (racemic) [4-cyclopropyl-7,8-difluoro-5-(4-(trifluoromethyl)phenylsulfonyl)-4,5-dihydro-1H-pyrazolo[4,3-c]quinoline] | 0.1 to 100 |  | 
O=S(=O)(c1ccc(C(F)(F)F)cc1)N1c2ccc(F)cc2-c2[nH]ncc2C1C1CC1 (racemic) [4-cyclopropyl-8-fluoro-5-(4-(trifluoromethyl)phenylsulfonyl)-4,5-dihydro-1H-pyrazolo[4,3-c]quinoline] | 0.1 to 100 |  | 
CC1c2cn[nH]c2C2CCCCC2N1S(=O)(=O)c1ccc(Cl)cc1 (racemic) [5-(4-chlorophenylsulfonyl)-4-methyl-4,5,5a,6,7,8,9,9a-octahydro-1H-pyrazolo[4,3-c]quinoline] | 0.1 to 100 |  | 
CC1c2c[nH]nc2-c2ccccc2N1S(=O)(=O)c1ccc(Cl)cc1 (racemic) [5-[(4-chlorophenyl)sulfonyl]-4-methyl-4,5-dihydro-2H-pyrazolo[4,3-c]quinoline] | 0.1 to 100 |  | 
CC1c2c[nH]nc2-c2cc(F)ccc2N1S(=O)(=O)c1ccc(Cl)cc1 (racemic) [5-[(4-chlorophenyl)sulfonyl]-8-fluoro-4-methyl-4,5-dihydro-2H-pyrazolo[4,3-c]quinoline] | 0.1 to 100 |  | 
CC1c2cn[nH]c2-c2cc(F)ccc2N1S(=O)(=O)c1cccnc1 (racemic) [8-fluoro-4-methyl-5-(pyridin-3-ylsulfonyl)-4,5-dihydro-1H-pyrazolo[4,3-c]quinoline] | 101 to 500 |  | 
O=S(=O)(c1ccc(C(F)(F)F)cc1)N1c2cc(F)c(F)cc2-c2[nH]ncc2C1C1CC1 (single isomer, unassigned) [4-cyclopropyl-7,8-difluoro-5-(4-(trifluoromethyl)phenylsulfonyl)-4,5-dihydro-1H-pyrazolo[4,3-c]quinoline] | 0.1 to 100 |  | 
O=S(=O)(c1ccc(F)cc1)N1c2cc(F)c(F)cc2-c2n[nH]cc2C1C1CC1 (single isomer, unassigned) [4-cyclopropyl-7,8-difluoro-5-(4-fluorophenylsulfonyl)-4,5-dihydro-2H-pyrazolo[4,3-c]quinoline] | 0.1 to 100 |  | 
O=S(=O)(c1ccc(C(F)(F)F)nc1)N1c2cc(F)c(F)cc2-c2[nH]ncc2C1C1CC1 (single isomer, unassigned) [4-cyclopropyl-7,8-difluoro-5-(6-(trifluoromethyl)pyridin-3-ylsulfonyl)-4,5-dihydro-1H-pyrazolo[4,3-c]quinoline] |  | 0.1 to 100 | 0.1 to 100
O=S(=O)(c1ccc(C(F)(F)F)cc1)N1c2ccc(F)cc2-c2[nH]ncc2C1C1CC1 (single isomer, unassigned) [4-cyclopropyl-8-fluoro-5-(4-(trifluoromethyl)phenylsulfonyl)-4,5-dihydro-1H-pyrazolo[4,3-c]quinoline] |  | 0.1 to 100 | 101 to 500
O=S(=O)(c1ccc(C(F)(F)F)cn1)N1c2ccc(F)cc2-c2[nH]ncc2C1C1CC1 (single isomer, unassigned) [4-cyclopropyl-8-fluoro-5-(5-(trifluoromethyl)pyridin-2-ylsulfonyl)-4,5-dihydro-1H-pyrazolo[4,3-c]quinoline] |  | 101 to 500 | 0.1 to 100
O=S(=O)(c1ccc(C(F)(F)F)nc1)N1c2ccc(F)cc2-c2n[nH]cc2C1C1CC1 (single isomer, unassigned) [4-cyclopropyl-8-fluoro-5-(6-(trifluoromethyl)pyridin-3-ylsulfonyl)-4,5-dihydro-2H-pyrazolo[4,3-c]quinoline] |  | 0.1 to 100 | 0.1 to 100
CC1c2c[nH]nc2-c2ccccc2N1S(=O)(=O)c1ccccn1 (single isomer, unassigned) [4-methyl-5-(pyridin-2-ylsulfonyl)-4,5-dihydro-1H-pyrazolo[4,3-c]quinoline] |  | 101 to 500 | 1000 to 10000
CC1c2cn[nH]c2C2CCCCC2N1S(=O)(=O)c1ccc(Cl)cc1 (single isomer, unassigned) [5-(4-chlorophenylsulfonyl)-4-methyl-4,5,5a,6,7,8,9,9a-octahydro-1H-pyrazolo[4,3-c]quinoline] |  | 101 to 500 | 0.1 to 100
CC1c2cn[nH]c2-c2ccc(O)cc2N1S(=O)(=O)c1ccc(Cl)cc1 (single isomer, unassigned) [5-(4-chlorophenylsulfonyl)-4-methyl-4,5-dihydro-1H-pyrazolo[4,3-c]quinolin-7-ol] |  | 0.1 to 100 | 0.1 to 100
CC1c2cn[nH]c2-c2cc(O)c(O)cc2N1S(=O)(=O)c1ccc(Cl)cc1 (single isomer, unassigned) [5-(4-chlorophenylsulfonyl)-4-methyl-4,5-dihydro-1H-pyrazolo[4,3-c]quinoline-7,8-diol] |  | 0.1 to 100 | 101 to 500
CC1c2c[nH]nc2-c2cc(F)c(F)cc2N1S(=O)(=O)c1ccc(Cl)cc1 (single isomer, unassigned) [5-(4-chlorophenylsulfonyl)-7,8-difluoro-4-methyl-4,5-dihydro-2H-pyrazolo[4,3-c]quinoline] |  | 0.1 to 100 | 0.1 to 100
O=S(=O)(c1ccc(Cl)s1)N1c2cc(F)c(F)cc2-c2n[nH]cc2C1C1CC1 (single isomer, unassigned) [5-(5-chlorothiophen-2-ylsulfonyl)-4-cyclopropyl-7,8-difluoro-4,5-dihydro-2H-pyrazolo[4,3-c]quinoline] |  | 0.1 to 100 | 0.1 to 100
CC1c2c[nH]nc2-c2cc(F)ccc2N1S(=O)(=O)c1ccc(Cl)cc1 (single isomer, unassigned) [5-[(4-chlorophenyl)sulfonyl]-8-fluoro-4-methyl-4,5-dihydro-2H-pyrazolo[4,3-c]quinoline] | 0.1 to 100 |  | 
CC1c2cn[nH]c2-c2cc(F)c(F)cc2N1S(=O)(=O)c1ccc(C(F)(F)F)cc1 (single isomer, unassigned) [7,8-difluoro-4-methyl-5-(4-(trifluoromethyl)phenylsulfonyl)-4,5-dihydro-1H-pyrazolo[4,3-c]quinoline] |  | 0.1 to 100 | 101 to 500
CC1c2cnc(N)nc2-c2cc(F)ccc2N1S(=O)(=O)c1ccc(F)cc1 (single isomer, unassigned) [9-fluoro-6-(4-fluorophenylsulfonyl)-5-methyl-5,6-dihydropyrimido[5,4-c]quinolin-2-amine] |  | 1000 to 10000 | 101 to 500
O=c1c2cnn(S(=O)(=O)c3ccc(Cl)cc3)c2c2ccccc2n1S(=O)(=O)c1ccc(Cl)cc1 [1,5-bis(4-chlorophenylsulfonyl)-1H-pyrazolo[4,3-c]quinolin-4(5H)-one] | 1000 to 10000 |  | 
Cc1noc(C)c1S(=O)(=O)N1c2ccc(F)cc2-c2[nH]ncc2C1C (stereo not drawn) [4-(8-fluoro-4-methyl-1H-pyrazolo[4,3-c]quinolin-5(4H)-ylsulfonyl)-3,5-dimethylisoxazole] | 501 to 1000 |  | 
O=S(=O)(c1ccc(OC(F)F)cc1)N1c2ccc(F)cc2-c2n[nH]cc2C1C1CC1 (stereo not drawn) [4-cyclopropyl-5-(4-(difluoromethoxy)phenylsulfonyl)-8-fluoro-4,5-dihydro-1H-pyrazolo[4,3-c]quinoline] | 0.1 to 100 |  | 
O=S(=O)(c1ccc(C(F)(F)F)cc1)N1c2nccn2-c2[nH]ncc2C1C1CC1 (stereo not drawn) [4-cyclopropyl-5-(4-(trifluoromethyl)phenylsulfonyl)-4,5-dihydro-1H-imidazo[1,2-a]pyrazolo[4,3-e]pyrimidine] | 501 to 1000 |  | 
O=S(=O)(c1ccc(C(F)(F)F)cc1)N1c2cccnc2-c2n[nH]cc2C1C1CC1 (stereo not drawn) [4-cyclopropyl-5-(4-(trifluoromethyl)phenylsulfonyl)-4,5-dihydro-2H-pyrazolo[4,3-c][1,5]naphthyridine] | 0.1 to 100 |  | 
O=S(=O)(c1ccc(C(F)(F)F)cc1)N1c2ncccc2-c2n[nH]cc2C1C1CC1 (stereo not drawn) [4-cyclopropyl-5-(4-(trifluoromethyl)phenylsulfonyl)-4,5-dihydro-2H-pyrazolo[4,3-c][1,8]naphythyridine] | 0.1 to 100 |  | 
O=S(=O)(c1ccc(C(F)(F)F)cc1)N1c2c[n+]([O-])ccc2-c2n[nH]cc2C1C1CC1 (stereo not drawn) [4-cyclopropyl-5-(4-(trifluoromethylphenylsulfonyl)-4,5-dihydro-2H-pyrazolo[4,3-c][1,7]naphthyridine 7-oxide] | 0.1 to 100 |  | 
O=S(=O)(c1ccc(F)cc1)N1c2ncccc2-c2n[nH]cc2C1C1CC1 (stereo not drawn) [4-cyclopropyl-5-(4-fluorophenylsulfonyl)-4,5-dihydro-2H-pyrazolo[4,3-c][1,8]naphthyridine] | 0.1 to 100 |  | 
O=S(=O)(c1ccc(F)cc1)N1c2ccccc2-c2n[nH]cc2C1C1CC1 (stereo not drawn) [4-cyclopropyl-5-(4-fluorophenylsulfonyl)-4,5-dihydro-2H-pyrazolo[4,3-c]quinoline] | 0.1 to 100 |  | 
